Patent publication US5583221A, “Substituted fused and bridged bicyclic compounds as therapeutic agents” (Eli Lilly and Company, priority 1995, dated 1996)
Where a name gives a salt, the structure may show the parent alone.

Legend:
NEUTROPHILS = assay: neutrophil superoxide anion release; format: cell-based; conditions: read-out: IC50 of Compounds in Cells, NEUTROPHILS
Description: (§1) To investigate the effect that Formula I compounds have on cell growth and activity, assays are performed such as to determine growth inhibition of cultured tumor cells and cultured keritinocytes, and neutrophil superoxide anion release by well known techniques.
(§2) Table 1 also includes data from testing in a cellular assay known as the "Bleb" assay. In the Bleb assay K562 cells, a human chronic myeloid leukemia cell line, are treated with compound and scored for the appearance of morphologic changes referred to as blebs on the cell surface. […] H. Osada et al., (1988) 41:7, 925.

MCF-7 = assay: growth inhibition of cultured tumor cells (MCF-7); format: cell-based; conditions: Homo sapiens, MCF7, read-out: IC50 of Compounds in Cells, MCF-7
Description: as §1, §2

[1] = test system: phorbol ester-induced mouse ear edema; assay: phorbol ester-induced mouse ear edema model; format: in vivo
Description: Formula I compounds also have been tested in vivo to determine their antiinflammatory activity. The model used for this testing is the well-known, widely accepted phorbol ester-induced mouse ear edema model wherein the efficacy of a test compound to reduce the edema induced by the phorbol ester is measured.

NHEK = assay: growth inhibition of cultured keritinocytes (NHEK); format: cell-based; conditions: read-out: IC50 of Compounds in Cells, NHEK
Description: as §1, §2

K562 cells [2] = assay: Bleb assay in K562 cells; format: cell-based; conditions: Homo sapiens, blebs on the cell surface, read-out: IC50 of Compounds in Cells, BLEB
Description: as §2

[3] = water solubility noted during work-up; format: physicochemical; conditions: observation during HPLC fraction work-up
Description: A solution of 8-exo-[4-(2-carbophenylmethoxy-6-phenylmethoxybenzoyl)-3,5-bis(phenylmethoxy)benzoyloxy]-9-endo-(4-phenylmethoxybenzamido)tricyclo[5.2.1.0 (2,6)]decane (0.33 g, 0.32 mmol) in 6:1 ethanol/ethyl acetate (35 mL) in a 500 mL Parr bottle was treated with trifluoroacetic acid (0.15 mL) and purged with nitrogen. Pearlman's catalyst (150 mg) was added, and the vessel was charged with hydrogen (50 psi) and shaken on a Parr apparatus for 18 h. The bottle was carefully evacuated of hydrogen and the solution was filtered through Celite®, then the filter cake was washed with ethanol, but not allowed to dry. The filtrate was concentrated in vacuo to a foamy yellow solid, which was dissolved in DMF (0.8 mL) and loaded onto HPLC; conditions: A- 0.1% TFA/5% CH3 CN/H2 O, B- CH3 CN, 100% A to 100% B over one h, 25 mL/min, 41×250 mm C18 column. […] (dec). Rf (2:1 methylene chloride/methanol on silica) 0.50; IR (KBr) 1703, 1635, 1608 cm^-1; ^1 H NMR (d6 -DMSO) d 11.66 (s, 2H), 9.97 (br s, 1H), 9.88 (s, 1H), 8.35 (d, 1H, J=7 Hz), 7.75 (d, 2H, J=9 Hz), 7.38 (d, 1H, J=8 Hz), 7.28 (t, 1H, J=8 Hz), 7.06 (d, 1H, J=8 Hz), 6.83 (s, 2H), 6.79 (d, 2H, J=9 Hz), 4.83 (d, 1H, J=2.5 Hz), 4.11 (m, 1H), 2.25 (d, 1H, J=4 Hz), 2.10-2.20 (m, 1H), 2.07 (br s, 2H), 1.60-2.00 (m, 3H), 1.48 (br s, 2H), 1.10-1.30 (m, 1H), 0.90-1.10 (m, 2H); mass spectrum (FAB): m/z 588. […]

K562 cells [4] = conditions: previous studies, H. Osada et al. (1988); cited from earlier work

7-[4-(2-Methoxycarbonyl-6-hydroxybenzoyl)-3,5-dihydroxybenzoyloxy]-2-(hydroxybenzamido)bicyclo[2.2.1]heptane [Example 14]
IC50 (NEUTROPHILS): 10 µM

O=C(N[C@@H]1c2ccccc2C[C@H]1OC(=O)c1cc(O)c(C(=O)c2c(O)cccc2C(=O)O)c(O)c1)c1ccc(O)cc1 (relative stereo) [Example 3, anti-1-(4-Hydroxybenzamido)-2-[3,5-dihydroxy-4-(2-carboxy-6-hydroxybenzoyl)benzoyloxy]indane]
IC50 (MCF-7): 71 µM | antiinflammatory activity: reduction of edema induced by phorbol ester [1]: active | IC50 (NHEK): 50 µM

O=C(N[C@@H]1c2ccccc2C[C@@H]1OC(=O)c1cc(O)c(C(=O)c2c(O)cccc2C(=O)O)c(O)c1)c1ccc(O)cc1 (relative stereo) [Example 4, syn-(4-Hydroxybenzamido)-2-[3,5-dihydroxy-4-(2-carboxy-6-hydroxybenzoyl)benzoyloxy]indane]
IC50 (MCF-7): 2.1 to 4 µM | IC50 (NHEK): 43 µM

COC(=O)c1cccc(O)c1C(=O)c1c(O)cc(C(=O)O[C@@H]2Cc3ccccc3[C@H]2NC(=O)c2ccc(O)cc2)cc1O (relative stereo) [Example 5]
IC50 (MCF-7): 23 µM | antiinflammatory activity: reduction of edema induced by phorbol ester [1]: active | IC50 (K562 cells [2]): 50 µM | IC50 (NHEK): 5 µM

COC(=O)c1cccc(O)c1C(=O)c1c(O)cc(C(=O)O[C@@H]2C3CCN(CC3)C[C@H]2NC(=O)c2ccc(O)cc2)cc1O (relative stereo) [Example 8, anti-4-[4-(2-methoxycarbonyl-6-hydroxybenzoyl)-3,5-dihydroxybenzoyloxy]-3-(4-hydroxybenzamido)-1-azabicyclo[3.2.2]nonane, trifluoroacetic acid salt]
IC50 (MCF-7): 74 µM | IC50 (K562 cells [2]): 12.5 µM | IC50 (NHEK): 92 µM

O=C(N[C@H]1[C@H]2CC[C@H](C2)[C@H]1OC(=O)c1cc(O)c(C(=O)c2c(O)cccc2C(=O)O)c(O)c1)c1ccc(O)cc1 (relative stereo) [Example 12, syn-2-[4-(2-Carboxy-6-hydroxybenzoyl)-3,5-dihydroxybenzoyloxy]-3-(4-hydroxybenzamido)bicyclo[2.2.1]heptane]
antiinflammatory activity: reduction of edema induced by phorbol ester [1]: active

O=C(NC1C2CCC(C2)C1OC(=O)c1cc(O)c(C(=O)c2c(O)cccc2C(=O)O)c(O)c1)c1ccc(O)cc1 (stereo not drawn) [Example 13, anti-2-[4-(2-Carboxy-6-hydroxybenzoyl)-3,5-dihydroxybenzoyloxy]-3-(4-hydroxybenzamido)bicyclo[2.2.1]heptane]
antiinflammatory activity: reduction of edema induced by phorbol ester [1]: active

COC(=O)c1cccc(O)c1C(=O)c1c(O)cc(C(=O)OC2C3CCC(C3)C2NC(=O)c2ccc(O)cc2)cc1O (stereo not drawn) [Example 16, anti-2-[4-(2-Methoxycarbonyl-6-hydroxybenzoyl)-3,5-dihydroxybenzoyloxy]-3-(4-hydroxybenzamido)bicyclo[2.2.1]heptane]
IC50 (NEUTROPHILS): 10 µM | antiinflammatory activity: reduction of edema induced by phorbol ester [1]: active | IC50 (K562 cells [2]): 25 µM

O=C(NC1C2CC(C3CCCC32)C1OC(=O)c1cc(O)c(C(=O)c2c(O)cccc2C(=O)O)c(O)c1)c1ccc(O)cc1 (stereo not drawn) [Example 20, 8-exo-[4-(2-Carboxy-6-hydroxybenzoyl)-3,5-dihydroxybenzoyloxy]-9-endo-(4-hydroxybenzamido)tricyclo[5.2.1.0 (2,6)]decane]
water solubility [3]: not water-soluble

O=C(NC1C2CC(C3CCCC32)C1OC(=O)c1cc(O)c(C(=O)c2c(O)cccc2C(=O)O)c(O)c1)c1ccc(O)cc1 (stereo not drawn) [Example 21, 8-endo-[4-(2-Carboxy-6-hydroxybenzoyl)-3,5-dihydroxybenzoyl-oxy]-9-endo-(4-hydroxybenzamido)tricyclo[5.2.1.0 (2,6)]decane]
water solubility [3]: not water-soluble

CN[C@@H]1C[C@H]2O[C@@](C)([C@@H]1OC)n1c3ccccc3c3c4c(c5c6ccccc6n2c5c31)C(=O)NC4 [staurosporine]
phorbol ester-induced blebbing (K562 cells [4]): inhibits
